{"source": "patent US11433028B2", "about": "“Compositions for treating viral infections and methods for same” (Tiger Development, LLC, priority 2018, dated 2022)", "key": {"SARS-CoV-2 [1]": {"system": "SARS-CoV-2", "type": "in vivo, mice"}, "SARS-CoV-2 [2]": {"system": "SARS-CoV-2", "design": "species or system mice", "settings": "mouse, in vivo"}}}
{"substance": "polylysine", "values": [{"measurement": "increase in total survival across the treatment period", "setting": "SARS-CoV-2 [1]; mouse, in vivo", "value": 5, "unit": "fold"}, {"measurement": "mice surviving the treatment and exposure period", "setting": "SARS-CoV-2 [1]; mouse, in vivo", "value": "six of ten"}, {"measurement": "body weight after the treatment and exposure period (recovery)", "setting": "SARS-CoV-2 [1]; surviving mice, p<0.05, FIG. 3A/3B", "value": "increasing weight to near pre-treatment levels"}, {"measurement": "improved survival rate", "setting": "SARS-CoV-2 [2]", "value": 50, "unit": "%"}, {"measurement": "onset of morbidity", "setting": "SARS-CoV-2 [2]", "value": "delayed onset of morbidity"}]}
